The record followed here is patent US10336684B2, “Phenyl-(aza)cycloalkyl carboxylic acid GPR120 modulators” (BRISTOL-MYERS SQUIBB COMPANY, priority 2014, dated 2019).

The EC50 is the midpoint of the concentration-response curve. Read a low EC50 as a more potent agent.

Chain of human GPR120 (Q5NUL3 whole entry): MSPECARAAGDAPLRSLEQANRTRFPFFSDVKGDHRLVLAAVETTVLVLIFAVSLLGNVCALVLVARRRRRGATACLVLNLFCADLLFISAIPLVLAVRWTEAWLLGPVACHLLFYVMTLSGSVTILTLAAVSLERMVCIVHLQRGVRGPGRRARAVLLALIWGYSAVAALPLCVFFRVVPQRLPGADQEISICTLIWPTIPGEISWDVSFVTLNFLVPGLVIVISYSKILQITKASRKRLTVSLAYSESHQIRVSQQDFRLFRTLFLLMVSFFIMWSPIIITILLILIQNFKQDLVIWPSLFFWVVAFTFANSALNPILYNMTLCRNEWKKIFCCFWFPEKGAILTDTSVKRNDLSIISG

For the test, the target named is human GPR120 (Homo sapiens (Human), UniProt Q5NUL3). Put plainly: GPR120 pERK AlphaScreen SureFire assay (human GPR120 pERK assay). Format: cell-based. To be noted: CHOA12 or CHO-K1 cells stably transfected with short form of human GPR120, 100% = 50 μM linolenic acid. An excerpt:
GPR120 activity was monitored by measuring phosphorylation of ERK (pERK), since G protein receptors are known to activate the ERK signaling cascade either directly and/or through recruitment of arrestin that serves as a scaffold for downstream signaling events.
GPR120 pERK AlphaScreen SureFire Assay
The human and mouse GPR120-mediated intracellular phosphorylated ERK assays were established using CHOA12 cells stably transfected with the short form of human or mouse GPR120 receptor. Cells were cultured in growth medium consisting of F-12 media (Invitrogen Cat. #11765) with 5% Charcoal/Dextran FBS (Invitrogen Cat. #12676-029), 500 μg/mL GENETICIN® (Life Technologies Cat. #10131-027) and 250 μg/mL Zeocin (Invitrogen Cat. #R250-01). Cells were cryo preserved at a concentration of 2×10^7 cells/mL, in 90% Charcoal/Dextran FBS and 10% DMSO, and frozen in liquid nitrogen at a low passage number.
For the pERK assay, 2×10^7 cells/mL cryopreserved human and mouse cells were thawed rapidly in a 37° C. water bath and added to a T-225 flask containing 50 mL growth medium. The flasks were placed in a tissue culture incubator overnight (37° C., 5% CO2). The next day, cells were harvested with trypsin (Gibco Cat. #25300-054), resuspended in serum-containing growth medium and counted using a Cellometer and volume adjusted to a concentration of 0.6×10^6 cells/mL. Cells were plated into 384-well clear bottom tissue culture plates (BD Cat. #353962) at 50 μL/well, for a density of 30,000 cells/well using a MULTIDROP® and incubated for 16-18 hours (overnight) at 37° C. with 5% CO2. The next day, cells were serum starved in 30 μL of F-12 media without any serum or antibiotics for 2 hours at 37° C.
Test compounds were 3-fold, 11-point serially diluted in DMSO in a REMP assay plate (Matrix Cat. #4307) by Tecan and 5 μL was transferred into an ECHO source plate (Labcyte Cat. #LC-0200). Cells were then stimulated with 50 nL of compound dilutions using ECHO liquid handler for 7 minutes at 37° C. Compounds ranged from final assay concentrations of 33.33 μM to 0.56 nM.
The media was then dumped and cells lysed with 20 μL of 1× Lysis buffer from the AlphaScreen SureFire Phospho-ERK 1/2 Kit (Perkin Elmer Cat. #6760617M). The lysis buffer was diluted 5-fold with water before use. The plate was agitated on a shaker for 10 minutes after which 2 μL was transferred into a 384-well white proxiplate (Perkin Elmer Cat. #6008289). The SureFire assay reagent mix was prepared by mixing 60 parts Reaction Buffer, 10 parts Activation Buffer, 1 part Donor Beads, 1 part Acceptor Beads (Perkin Elmer Cat. #TGRES10K). 3.5 μL/well of this reagent mix was manually added to the proxiplate with a multichannel pipettor. Plates were spun down at 1000 rpm for 2 minutes, followed by light-protected incubation at room temperature for 2 hours. The plates were read on the Alpha-technology compatible Envision multilabel plate reader using AlphaScreen protocol according to manufacturer's specifications. The agonist effect of compounds was expressed as 100×(average sample-average blank)/(average total−average blank) where sample is the luminescence activity in the presence of test compound, blank is equal to the luminescence activity in the presence of DMSO control and the total is signal induced by 50 μM linolenic acid as reference compound. Activation data for the test compound over a range of concentrations was plotted as percentage activation of the test compound (100%=maximum response). After correcting for background, EC50 values were determined. The EC50 is defined as the concentration of test compound which produces 50% of the maximal response and was quantified using the 4 parameter logistic equation to fit the data.
The human and mouse GPR120-mediated intracellular phosphorylated ERK assays were also established using CHO-K1 cells stably transfected with the short form of human or mouse GPR120 receptor. […]
For orientation: In Alpha technology, singlet oxygen from a donor bead excites a nearby acceptor bead.
The compound `O=C(O)[C@H]1C[C@@H]1COc1ccc(C2CCCC(Oc3ccccc3)C2)cc1` (mixture of isomers) [Example 11, (1S,2S)-2-((4-((+/−)-3-Phenoxycyclohexyl)phenoxy)methyl)cyclopropanecarboxylic acid] displayed an EC50 of 600 nM. In other words, the sub-micromolar range. The same measure for `Cc1ccc(O[C@H]2CCC[C@@H](c3ccc(CCOCC(=O)O)cc3)C2)cc1F` (racemic) [Example 34]: 300 nM.

`Cc1ccc(O[C@H]2CCC[C@@H](c3ccc(CCOCC(=O)O)cc3)C2)cn1` (racemic) [Example 35] registered a half-maximal effective concentration (EC50) of 1610 nM. This EC50 lies about 5.4-fold higher than the previous one.

In the case of `Cc1ccc(O[C@H]2CCC[C@@H](c3ccc(CCOCC(=O)O)cc3)C2)cc1` (racemic) [Example 36], a half-maximal effect (EC50) was put at 310 nM. On to `O=C(O)COCCc1ccc([C@@H]2CCC[C@H](Oc3ccc(F)cc3)C2)cc1` (racemic) [Example 37], for which the concentration giving a half-maximal response (EC50) is 4240 nM. Consider `O=C(O)COCCc1ccc([C@@H]2CCC[C@H](Oc3ccc(Cl)cc3)C2)cc1` (racemic) [Example 38], for which the EC50 worked out at 720 nM. This EC50 is about 5.9-fold lower than that of the compound before. As for `N#Cc1ccc(O[C@H]2CCC[C@@H](c3ccc(CCOCC(=O)O)cc3)C2)cc1` (racemic) [Example 39], the 50% effective concentration (EC50) stood at 3240 nM. This EC50 lies about 4.5-fold higher than the previous one. Compound `O=C(O)[C@H]1C[C@@H]1CCc1ccc([C@@H]2CCC[C@@H](Oc3ccccc3)C2)cc1` (racemic) [Example 40] yielded a concentration for a half-maximal effect (EC50) of 3750 nM.

`O=C(O)[C@@H]1C[C@H]1CCc1ccc([C@@H]2CCC[C@@H](Oc3ccccc3)C2)cc1` (racemic) [Example 41] had a concentration for a half-maximal effect (EC50) of 1940 nM. Against the preceding compound, the EC50 is about 1.9-fold lower. Take `O=C(O)[C@H]1C[C@@H]1COc1ccc([C@@H]2CCC[C@@H](Oc3ccccc3)C2)cc1` (racemic) [Example 42]: the EC50 was greater than 32000 nM. The same measure for `CC(C)O[C@H]1CCC[C@@H](c2ccc(OC[C@H]3C[C@@H]3C(=O)O)cc2)C1` (racemic) [Example 43]: greater than 16000 nM; for `O=C(O)CCCCc1ccc([C@@H]2CCC[C@H](Oc3ccccc3)C2)cc1` (single isomer, unassigned) [Example 1, 5-(4-((+/−)-3-Phenoxycyclohexyl)phenyl)pentanoic acid]: 480 nM; for `O=C(O)CCCCc1ccc([C@@H]2CCC[C@@H](Oc3ccccc3)C2)cc1` (single isomer, unassigned) [Example 2, 5-(4-((+/−)-3-Phenoxycyclohexyl)phenyl)pentanoic acid]: 2360 nM. With `CC(C)O[C@H]1CCC[C@@H](c2ccc(CCCCC(=O)O)cc2)C1` (single isomer, unassigned) [Example 3, 5-(4-((+/−)-3-Isopropoxycyclohexyl)phenyl)pentanoic acid], the 50% effective concentration (EC50) amounted to 1160 nM. Compound `O=C(O)COCCc1ccc([C@@H]2CCC[C@H](Oc3ccccc3)C2)cc1` (single isomer, unassigned) [Example 4, 2-(4-((+/−)-3-Phenoxycyclohexyl)phenethoxy)acetic acid] returned a half-maximal effective concentration (EC50) of 320 nM. The same measure for `O=C(O)COCCc1ccc([C@H]2CCC[C@@H](Oc3ccccc3)C2)cc1` (single isomer, unassigned) [Example 5]: 1030 nM. The value for `O=C(O)COCCc1ccc([C@@H]2CCC[C@H](Oc3ccccc3)C2)cc1` (single isomer, unassigned) [Example 6] was 180 nM; that for `O=C(O)[C@H]1C[C@@H]1CCc1ccc([C@@H]2CCC[C@H](Oc3ccccc3)C2)cc1` (single isomer, unassigned) [Example 7] was 920 nM. `O=C(O)[C@H]1C[C@@H]1CCc1ccc([C@H]2CCCC(Oc3ccccc3)C2)cc1` (single isomer, unassigned) [Example 8] showed an EC50 of 1450 nM.

The compound `O=C(O)[C@H]1C[C@@H]1CCc1ccc([C@@H]2CCCC(Oc3ccccc3)C2)cc1` (single isomer, unassigned) [Example 9] yielded an EC50 of 650 nM. Take `O=C(O)[C@@H]1C[C@H]1CCc1ccc([C@@H]2CCC[C@H](Oc3ccccc3)C2)cc1` (single isomer, unassigned) [Example 10]: the EC50 came to 530 nM. This EC50 and that of the compound before are within 1.5-fold of each other. Turning to `O=C(O)CCCCc1ccc(C2CCCCC(Oc3ccccc3)C2)cc1` (single isomer, unassigned) [Example 12, 5-(4-(3-Phenoxycycloheptyl)phenyl)pentanoic acid], the EC50 was found to be 310 nM. In turn, `O=C(O)CCCCc1ccc(C2CCCCC(Oc3ccccc3)C2)cc1` (single isomer, unassigned) [Example 13, 5-(4-(3-Phenoxycycloheptyl)phenyl)pentanoic acid] showed an EC50 of 1030 nM. Regarding `O=C(O)COCCc1ccc(C2CCCCC(Oc3ccccc3)C2)cc1` (single isomer, unassigned) [Example 15, 2-(4-(3-Phenoxycycloheptyl)phenethoxy)acetic acid], a half-maximal effect (EC50) was put at 1990 nM. The value for `O=C(O)COCCc1ccc(C2CCCCC(Oc3ccccc3)C2)cc1` (single isomer, unassigned) [Example 16, 2-(4-(3-Phenoxycycloheptyl)phenethoxy)acetic acid] was 750 nM; that for `O=C(O)COCCc1ccc(C2CCCCC(Oc3ccccc3)C2)cc1` (single isomer, unassigned) [Example 17, 2-(4-(3-Phenoxycycloheptyl)phenethoxy)acetic acid] was 270 nM.

In turn, `O=C(O)[C@@H]1C[C@@H]1COc1ccc(N2CCCC(Oc3ccccc3)C2)cc1` (single isomer, unassigned) [Example 28, (+/−)-2-((4-(3-Phenoxypiperidin-1-yl)phenoxy)methyl)cyclopropanecarboxylic acid] showed an EC50 of 4980 nM. This EC50 is about 18-fold higher than that of the compound before. `O=C(O)COCCc1ccc(C2CCCCC(Oc3ccccc3)C2)cc1` (stereo not shown) [Example 14, 2-(4-(3-Phenoxycycloheptyl)phenethoxy)acetic acid]: the EC50 was found to be 630 nM. Regarding `O=C(O)CCCCc1ccc(C2CCC(Oc3ccccc3)C2)cc1` (stereo not shown) [Example 18, 5-(4-(3-Phenoxycyclopentyl)phenyl)pentanoic acid], the midpoint of the response, the EC50, lay at 1380 nM. Against the preceding compound, the EC50 is about 2.2-fold higher. Regarding `O=C(O)COCCc1ccc(C2CCC(Oc3ccccc3)C2)cc1` (stereo not shown) [Example 19, 2-(4-(3-Phenoxycyclopentyl)phenethoxy)acetic acid], the 50% effective concentration (EC50) stood at 2130 nM. This EC50 is about 1.5-fold higher than that of the compound before. With `O=C(O)CCCCc1ccc(N2CCC[C@H](Oc3ccccc3)C2)cc1` [Example 23, (S)-5-(4-(3-Phenoxypiperidin-1-yl)phenyl)pentanoic acid], the EC50 is 500 nM. Compared with the last compound, the EC50 is about 4.3-fold lower. In the case of `O=C(O)CCCCc1ccc(N2CCC[C@H](Oc3ccc(F)cc3)C2)cc1` [Example 24, (S)-5-(4-(3-(4-Fluorophenoxy)piperidin-1-yl)phenyl)pentanoic acid], the EC50 was found to be 930 nM. Compared with the last compound, the EC50 is about 1.9-fold higher. Consider `O=C(O)CCCCc1c(F)cc(N2CCC[C@H](Oc3ccccc3)C2)cc1F` [Example 25, (S)-5-(2,6-Difluoro-4-(3-phenoxypiperidin-1-yl)phenyl)pentanoic acid], for which the EC50 amounted to 540 nM. Compound `O=C(O)CCCCc1ccc(N2CCC[C@H](Oc3ccccc3)C2)cc1F` [Example 26, (S)-5-(2-Fluoro-4-(3-phenoxypiperidin-1-yl)phenyl)pentanoic acid] displayed a concentration for a half-maximal effect (EC50) of 570 nM. The EC50 values of the last two compounds are within 1.5-fold of each other. The same measure for `O=C(O)COCCCc1ccc(N2CCCC(Oc3ccccc3)C2)cc1` (stereo not shown) [Example 27, 2-(3-(4-(3-Phenoxypiperidin-1-yl)phenyl)propoxy)acetic acid]: 4130 nM; for `O=C(O)CCCCc1ccc(C2CCCCC(Oc3ccc(Cl)cc3)C2)cc1` (stereo not shown) [Example 44]: 530 nM; for `O=C(O)CCCCc1ccc(C2CCCCC(Oc3cccc(Cl)c3)C2)cc1` (stereo not shown) [Example 45]: 2020 nM.
